# Results published in patent US20100267734A1, “N-[(3,5-DICHLOROPHENYL)METHYL]-2-(4-METHYL-1-PIPERAZINYL)-2-(1-NAPHTHALENYL)ETHANAMIDE AS GHRELIN RECEPTOR MODULATOR” (Glaxo Group Limited, priority 2007, published 2010).
# Structures can show the parent of a compound that is named as a salt.
# What was measured:
# [1] = target: T1, Human GHSR (Homo sapiens, UniProt Q92847); test: GHS-R GTPγS functional antagonist assay; type: biochemical; parameters: The full-length gene was transferred into pCDN for expression analysis; expressed in transfected cells; host or cells: CHO cells (electroporated, pCDN) or HEK293T cells (transient, pcDNA3); membranes prepared from the cultured cells; settings: membranes of HEK293T cells transiently expressing GHS-R; human Ghrelin at EC80; [35S]GTPγS SPA
# Procedure: Human GHS-R was cloned from human hypothalamus cDNA and TOPO Ta cloned into pCR2.1. The sequence was confirmed. The full-length gene was transferred into pCDN for expression analysis. The sequence was confirmed again and the plasmid was electroporated into CHO cells. The clones were screened by FLIPR.
# HEK293T cells (HEK293 cells stably expressing the SV40 large T-antigen) were maintained in DMEM containing 10% (v/v) newborn calf serum and 2 mM glutamine. Cells were seeded in 60 mm culture dishes and grown to 60-80% confluency (18-24 h) prior to transfection with pcDNA3 containing the relevant DNA species using Lipofectamine reagent. […]
# The plate was then incubated on a shaker at room temperature for 30 mins followed by centrifugation for 5 mins at 1500 rpm. The plate was read between 3 and 6 hours after completion of centrifuge run in a Wallac Microbeta counter on a 1 min normalised tritium count protocol. Data was analysed using a 4-parameter logistic equation. […]
# Protocol as described above for functional agonist assay, except prior to addition of the [35-S], 10 ul of human Ghrelin solution in assay buffer was added to give a final concentration equating to EC80 (determined for each assay).
# [2] = target: T1, Human GHSR; test: GHSR Antagonist BACMAM FLIPR Assay (Method B); type: cell-based; parameters: The full-length gene was transferred into pCDN for expression analysis; expressed in transfected cells; host or cells: U2OS cells transduced with human GHSR BacMam virus (pFastBacmam, CMV promoter); settings: U2OS cells transduced with human GHSR BACMAM virus, EC80 hGhrelin, accurate to within ±0.5
# Source text: Human GHS-R was cloned from human hypothalamus cDNA and TOPO Ta cloned into pCR2.1. The sequence was confirmed. The full-length gene was transferred into pCDN for expression analysis. The sequence was confirmed again and the plasmid was electroporated into CHO cells. The clones were screened by FLIPR. The open reading frame of GHS-R was transferred from pCDN into pFastBacmam vector. This vector was used to generate recombinant baculoviruses in which the insect cell-specific polyhedrin promoter has been replaced with a mammalian cell-active promoter, in this case CMV. This was then used with the Bac to Bac expression system (Invitrogen). Briefly the vector was transformed into DH10 bac E. coli and the bacmid isolated from the transformed cells. The bacmid was then transfected into Sf9 insect cells grown in ExCell 420 (JRH) medium in 6-well dishes for the production of recombinant baculovirus particules. 24 hours prior to assay U2OS cells at confluence 100% were harvested and spun down. The supernatant was removed and the cells resuspended in media (DMEM+10% FBS+1% L-Glutamine). […] Human GHSR BACMAM virus was added to the cell suspension at an appropriate % volume (calculated for individual batches of BACMAM virus as viral titres vary). […] Maximum changes in fluorescence were plotted and curves fitted using a 4-parameter logistic equation to generate pIC50 values.
# [3] = target: T1, Human GHSR; test: GHSR Agonist BACMAM FLIPR Assay (Method Y); type: cell-based; parameters: The full-length gene was transferred into pCDN for expression analysis; expressed in transfected cells; host or cells: U2OS cells transduced with human GHSR BacMam virus (pFastBacmam, CMV promoter); settings: U2OS cells transduced with human GHSR BACMAM virus, accurate to within ±0.5
# Source text: Human GHS-R was cloned from human hypothalamus cDNA and TOPO Ta cloned into pCR2.1. The sequence was confirmed. The full-length gene was transferred into pCDN for expression analysis. The sequence was confirmed again and the plasmid was electroporated into CHO cells. The clones were screened by FLIPR. The open reading frame of GHS-R was transferred from pCDN into pFastBacmam vector. This vector was used to generate recombinant baculoviruses in which the insect cell-specific polyhedrin promoter has been replaced with a mammalian cell-active promoter, in this case CMV. This was then used with the Bac to Bac expression system (Invitrogen). Briefly the vector was transformed into DH10 bac E. coli and the bacmid isolated from the transformed cells. […] Human GHSR BACMAM virus was added to the cell suspension at an appropriate % volume (calculated for individual batches of BACMAM virus as viral titres vary). […] The plates were placed in a FLuorimetric Imaging Plate Reader (FLIPR, Molecular Devices) where 10 μl of compound was added to the cells and fluorescence measurements were taken. […] Intrinsic activity of the compounds was calculated by using the maximum asymptote of it's concentration response curve relative to the maximum asymptote of the hGhrelin concentration response curve.
# T1 sequence (Q92847 whole entry): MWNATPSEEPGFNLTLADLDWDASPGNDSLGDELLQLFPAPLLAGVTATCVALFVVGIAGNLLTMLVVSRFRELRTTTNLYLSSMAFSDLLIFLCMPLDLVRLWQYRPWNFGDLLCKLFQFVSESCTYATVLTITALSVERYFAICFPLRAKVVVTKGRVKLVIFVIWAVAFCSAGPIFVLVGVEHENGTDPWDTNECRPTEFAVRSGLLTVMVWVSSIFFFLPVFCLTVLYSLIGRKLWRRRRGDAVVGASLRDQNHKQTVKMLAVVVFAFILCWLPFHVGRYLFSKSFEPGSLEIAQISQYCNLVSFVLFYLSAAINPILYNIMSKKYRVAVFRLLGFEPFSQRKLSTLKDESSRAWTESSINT
Ki [1] [nM],IC50 [2] [nM],EC50 [3] [nM],Structure (SMILES)
< 10,–,–,"CN1CCN(C(C(=O)NCc2cc(Cl)cc(Cl)c2)c2cccc3ccccc23)CC1 (racemic) [Compound 1, (±)-N-[(3,5-dichlorophenyl)methyl]-2-(4-methyl-1-piperazinyl)-2-(1-naphthalenyl)ethanamide]"
< 10,10,> 2000,"CN1CCN([C@@H](C(=O)NCc2cc(Cl)cc(Cl)c2)c2cccc3ccccc23)CC1 [Compound 3, (2R)-N-[(3,5-dichlorophenyl)methyl]-2-(4-methyl-1-piperazinyl)-2-(1-naphthalenyl)ethanamide hydrochloride]"
